Structures can show the parent of a compound that is named as a salt. Where two headings read alike, the source gives them in different places. Each block holds one molecule with its values, some of them ahead of it.
What was measured:
[1] = molecular target: T1, human recombinant Met kinase (Homo sapiens, UniProt P08581); experiment: Colorimetric determination of c-Met kinase activity (HTScan Met Kinase Assay Kit); assay type: biochemical; conditions: for inhibition at 0.1 µM: 100 nM (cells without *), read-out: c-Met Enzyme % inhibition @ 100 nM
T1 construct: purchased Cell Signalling Technology, Beverly, Mass
T1 sequence (P08581 25-1390): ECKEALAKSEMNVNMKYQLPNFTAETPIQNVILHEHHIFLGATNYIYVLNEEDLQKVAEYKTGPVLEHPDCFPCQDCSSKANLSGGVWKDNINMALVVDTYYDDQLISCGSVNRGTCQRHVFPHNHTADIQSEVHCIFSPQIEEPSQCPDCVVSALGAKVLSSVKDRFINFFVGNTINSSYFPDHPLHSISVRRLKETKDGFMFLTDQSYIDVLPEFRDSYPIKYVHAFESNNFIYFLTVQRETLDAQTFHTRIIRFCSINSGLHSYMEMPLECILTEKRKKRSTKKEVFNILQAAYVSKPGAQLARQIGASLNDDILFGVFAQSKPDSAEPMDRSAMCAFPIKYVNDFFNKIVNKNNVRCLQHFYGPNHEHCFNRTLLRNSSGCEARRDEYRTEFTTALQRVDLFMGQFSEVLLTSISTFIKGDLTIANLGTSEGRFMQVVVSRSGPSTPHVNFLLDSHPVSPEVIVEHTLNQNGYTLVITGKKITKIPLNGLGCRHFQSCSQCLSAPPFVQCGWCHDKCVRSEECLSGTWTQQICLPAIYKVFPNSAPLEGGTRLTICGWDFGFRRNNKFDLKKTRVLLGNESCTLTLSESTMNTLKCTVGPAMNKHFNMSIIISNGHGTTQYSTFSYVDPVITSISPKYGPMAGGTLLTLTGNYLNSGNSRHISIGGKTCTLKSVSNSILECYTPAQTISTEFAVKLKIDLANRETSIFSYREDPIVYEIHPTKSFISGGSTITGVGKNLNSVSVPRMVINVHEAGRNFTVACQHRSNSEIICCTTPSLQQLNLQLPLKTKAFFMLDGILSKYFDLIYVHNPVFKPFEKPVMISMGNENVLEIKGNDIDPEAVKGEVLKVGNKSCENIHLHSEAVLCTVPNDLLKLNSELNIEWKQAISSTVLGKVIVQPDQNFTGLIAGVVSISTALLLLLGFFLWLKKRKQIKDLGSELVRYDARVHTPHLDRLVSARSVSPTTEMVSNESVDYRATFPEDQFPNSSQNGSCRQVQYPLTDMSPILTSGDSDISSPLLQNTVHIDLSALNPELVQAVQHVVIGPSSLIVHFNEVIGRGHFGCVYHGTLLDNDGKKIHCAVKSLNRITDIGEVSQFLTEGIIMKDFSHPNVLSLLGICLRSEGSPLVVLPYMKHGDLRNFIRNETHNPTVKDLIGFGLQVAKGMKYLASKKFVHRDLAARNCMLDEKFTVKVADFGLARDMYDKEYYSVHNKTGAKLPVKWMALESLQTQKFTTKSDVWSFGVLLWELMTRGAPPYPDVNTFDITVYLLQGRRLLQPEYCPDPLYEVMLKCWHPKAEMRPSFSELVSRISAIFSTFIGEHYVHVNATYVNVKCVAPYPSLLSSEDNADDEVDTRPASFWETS
Description: 1. MET Kinase Assay Protocol:
Colorimetric Determination of c-Met Kinase Activity
The receptor tyrosine kinase c-Met is a heterodimeric transmembrane glycoprotein involved in several cellular processes that aid in tumor progression. Phosphorylation of the tyrosine residues in the c-Met kinase domain is critical for its activity and the resulting down-stream effects. The colorimetric assay allows detection of the phosphorylated form of a biotinylated peptide upon activation of human recombinant Met kinase.
MET Kinase Assay Protocol:
c-Met Kinase activity shall be determined using an HTScan® Met Kinase Assay Kit (Cell Signalling Technology, Beverly, Mass.) with modifications. All incubations are carried out at room temperature. Briefly, 12.5 μl of a 4× reaction cocktail (DTT/Kinase buffer containing appropriate quantity of human Met kinase) is added to each well of a 96-well plate containing 12.5 μl pre-diluted compound of interest and incubated for 5 minutes. After the initial incubation, 25 μl/well of 2×ATP/biotinylated peptide is added and incubated for an additional 30 minutes. The reaction is terminated by the addition of 50 μl/well stop buffer (50 mM EDTA, pH 8.0). The reaction mixture (25 μl/well) is then transferred to a streptavidin coated plate (Perkin Elmer, Cat#4009-0010) containing 75 μl dH2O and incubated for 60 minutes. The plate is washed with 200 μl/well wash buffer (1×PBS, 0.05% Tween-20). After washing, 100 μl/well phospho-tyrosine mAb (1:1000 in wash buffer containing 1% BSA) is added and incubated for 60 minutes. After another round of washes, 100 μl/well europium labelled anti-mouse IgG (1:500 in wash buffer containing 1% BSA) is added and incubated for an additional 30 minutes. Following additional washes, 100 μl/well Delfia^(R) enhancement solution (Perkin Elmer, Cat#1244-105) is added and incubated for 45 minutes. Florescence is measured on a microplate reader (BMG Labtech., Germany) at 340 nm (excitation) and 615 nm (emission) for calculating % inhibition. Data generated can be analyzed further using Graphpad Prism (Graphpad software, San Diego Calif.) for determination of IC50.
Results: The results are as given below in Table 4A, 4B and 4C as % Inhibition or IC50 of c-Met

MKN-45 = experiment: Inhibition of MKN-45 proliferation (MTT); assay type: cell-based, human; conditions: MKN-45 proliferation; for GI50: read-out: MKN45 GI50
Method: 3. Inhibition of MKN-45 Proliferation:
Cell proliferation assays were carried out using the high Met expressing human gastric adenocarcinoma cell line, MKN-45, according to the following schedule: • Day 1: Cells were plated in 96-well plates in complete growth medium. • Day 2: Compounds at desired concentrations were added. • Day 5: Cell viability was determined using the 3-[4,5-dimethylthiazol-2-yl]-2,5-diphenyltetrazolium bromide (MTT) dye reduction test. Results: The results are as given as % Inhibition of MKN-45 proliferation at 100 nM and GI50 values in Table 4A to 4C above. 4. Inhibition of c-Met Kinase Phosphorylation in MKN-45 Cells: […]

inhibition at 0.1 µM ([1]; Table 4A): 75 to 100%
SMILES: CN(C)CCCNC(=O)c1ccc(-c2ccc3nnn(Cc4ccc5ncccc5c4)c3n2)cc1 [Example 68, N-(3-Dimethylamino-propyl)-4-(3-quinolin-6-ylmethyl-3H-[1,2,3]triazolo[4,5-b]pyridin-5-yl)-benzamide dihydrochloride]

inhibition at 0.1 µM ([1]; Table 4A): 75 to 100%
SMILES: Cc1cc(-c2ccc3nnn(Cc4ccc5ncccc5c4)c3n2)ccc1C(=O)NOCCOC(=O)c1ccco1 [Example 47, 2-(2-methyl-4-(3-(quinolin-6-ylmethyl)-3H-[1,2,3]triazolo[4,5-b]pyridin-5-yl)benzamidooxy)ethyl furan-2-carboxylate]

SMILES: Cl.O=C(NOCCO)c1ccc(-c2ccc3nnn(Cc4cc5cccnc5cc4F)c3n2)cc1Cl [Example 7a, 2-chloro-4-(3-((7-fluoroquinolin-6-yl)methyl)-3H-[1,2,3]triazolo[4,5-b]pyridin-5-yl)-N-(2-hydroxyethoxy)benzamide hydrochloride]
MKN45 % inhibition @ 100 nM (MKN-45; Table 4A): A (A= ≧75 to 100%)

inhibition at 0.1 µM ([1]; Table 4C): < 25%
SMILES: O=C1NCc2cc(-c3ccc4ncn(Cc5ccc6ncccc6c5)c4n3)ccc21 [Example 1033, 5-(3-Quinolin-6-ylmethyl-3H-imidazo[4,5-b]pyridin-5-yl)-2,3-dihydro-isoindol-1-one]

inhibition at 0.1 µM ([1]; Table 4A): 75 to 100%
SMILES: Cc1cc(-c2ccc3nnn(Cc4ccc5ncccc5c4)c3n2)ccc1C(=O)NO [Example 42, N-Hydroxy-2-methyl-4-(3-quinolin-6-ylmethyl-3H-[1,2,3]triazolo[4,5-b]pyridin-5-yl)-benzamide]

inhibition ([1]; Table 4A, cells marked *: tested @ 300 nM, read-out: c-Met Enzyme % inhibition): < 25%
SMILES: CCNC(=S)N/N=C(\C)c1ccc2nnn(Cc3ccc4ncccc4c3)c2n1 [Example 55, N-ethyl-2-(1-(3-(quinolin-6-ylmethyl)-3H-[1,2,3]triazolo[4,5-b]pyridin-5-yl)ethylidene)hydrazinecarbothioamide]

SMILES: Cl.O=C(NOCCO)c1c(F)cc(-c2ccc3nnn(Cc4ccc5ncccc5c4)c3n2)cc1F [Example 8a, 2,6-difluoro-N-(2-hydroxyethoxy)-4-(3-(quinolin-6-ylmethyl)-3H-[1,2,3]triazolo[4,5-b]pyridin-5-yl)benzamide hydrochloride]
MKN45 % inhibition @ 100 nM (MKN-45; Table 4A): C (C = ≧25-<50%)

inhibition at 0.1 µM ([1]; Table 4A): 50 to 75%
SMILES: Cc1cc(-c2ccc3nnn(Cc4ccc5[nH]c(=O)ccc5c4)c3n2)ccc1C(=O)NOCC(C)(C)O [Example 37, N-(2-hydroxy-2-methylpropoxy)-2-methyl-4-(3-((2-oxo-1,2-dihydroquinolin-6-yl)methyl)-3H-[1,2,3]triazolo[4,5-b]pyridin-5-yl)benzamide]

inhibition at 0.1 µM ([1]; Table 4A): 75 to 100%
SMILES: Cc1cc(-c2ccc3nnn(Cc4ccc5ncccc5c4)c3n2)ccc1C(=O)NOCCOC(=O)C(C)C [Example 44, 2-(2-methyl-4-(3-(quinolin-6-ylmethyl)-3H-[1,2,3]triazolo[4,5-b]pyridin-5-yl)benzamidooxy)ethyl isobutyrate]

inhibition at 0.1 µM ([1]; Table 4C): < 25%
SMILES: NC(=O)c1c(F)cc(-c2ccc3nnn(Cc4ccc5c(ccc[n+]5[O-])c4)c3n2)cc1F [Example 1001, 6-((5-(4-carbamoyl-3,5-difluorophenyl)-3H-[1,2,3]triazolo[4,5-b]pyridin-3-yl)methyl)quinoline 1-oxide]

GI50 (MKN-45; Homo sapiens, MKN-45, Table 4A): 100 to 250 nM
SMILES: CNC(=O)CNC(=O)c1ccc(-c2ccc3nnn(Cc4ccc5ncccc5c4)c3n2)cc1 [Example 2, N-(2-(methylamino)-2-oxoethyl)-4-(3-(quinolin-6-ylmethyl)-3H-[1,2,3]triazolo[4,5-b]pyridin-5-yl)benzamide]

GI50 (MKN-45; Table 4A, hydrochloride): 25 to 50 nM
SMILES: Cl.O=C(NOCCO)c1c(F)cc(-c2ccc3nnn(Cc4cc5cccnc5cc4F)c3n2)cc1F [Example 9a, 2,6-difluoro-4-(3-((7-fluoroquinolin-6-yl)methyl)-3H-[1,2,3]triazolo[4,5-b]pyridin-5-yl)-N-(2-hydroxyethoxy)benzamide hydrochloride]
MKN45 % inhibition @ 100 nM (MKN-45; Table 4A): A (A= ≧75 to 100%)

SMILES: Cc1cc(-c2ccc3nnn(Cc4ccc5ncccc5c4)c3n2)ccc1C(=O)NOCCO [Example 25a, N-(2-hydroxyethoxy)-2-methyl-4-(3-(quinolin-6-ylmethyl)-3H-[1,2,3]triazolo[4,5-b]pyridin-5-yl)benzamide hydrochloride]
MKN45 % inhibition @ 100 nM (MKN-45; Table 4A, hydrochloride, 0.1 µM): B (B = ≧50-<75%)
